Tests used:
[1] = Suppression of discoloration of a chlorophyll/ethanol solution preserved under illumination of light; conditions: 10° C., 17 hours, 1600 Lux; for Suppression Effect (%): 0.01 M anti-oxidation material in chlorophyll/ethanol solution (25 μg/ml), absorbance at 640 nm, relative to control sample; for effect of retaining a green color against light: addition to chlorophyll/ethanol solution
Experimental: Next, to check the effect resulting when anti-oxidation materials permeated into tissues, particularly chloroplasts, of a living body, a test for suppressing discoloration of a green color was made by preparing a chlorophyll/ethanol solution including chlorophyll, dissolving each of various anti-oxidation materials in the solution, and preserving it under illumination of light. More specifically, 4 ml of the chlorophyll/ethanol solution was prepared by adding 25 μg of chlorophyll in 1 ml of ethanol, and each anti-oxidation material, i.e., 0.01 M of ascorbic acid (aqueous solution), 0.01 M of α-tochopherol (ethanol solution), and 0.01 M of β-carotene (ethanol solution), was dissolved in the chlorophyll/ethanol solution. After enclosing each test sample, the test sample was preserved at 10° C. for 17 hours under 1600 Lux. Then, a change in absorbance of the test sample at 640 nm between before and after the preservation was measured. A higher value of the absorbance at 640 nm means a larger amount of chlorophyll. In Table 1, “control sample” represents a sample in which water was added, and “suppression effect” represents a chlorophyll reduction rate of each test sample calculated on condition that a chlorophyll reduction rate of the control sample after the preservation under illumination of light was assumed to be 100.

[2] = Suppression of discoloration by immersing green soybeans in aqueous solutions of anti-oxidation materials; parameters: species or system green soybean; conditions: green soybeans immersed in aqueous solutions, permeation into tissues under depressurization
Description: A test for suppressing discoloration of a green color was made by immersing green soybeans in aqueous solutions of various anti-oxidation materials, such as ascorbic acid, tocopherol and carotenoids, thus causing the anti-oxidation materials to permeate into tissues under depressurization and to capture radicals inducing decomposition of chlorophyll.

| Molecule | Suppression Effect (%) [1] | effect of retaining a green color against light [1] | effect of suppressing discoloration of a green color [2] |
| --- | --- | --- | --- |
| Cc1c(C)c2c(c(C)c1O)CCC(C)(CCCC(C)CCCC(C)CCCC(C)C)O2 (stereo not drawn) [α-Tochopherol/ethanol solution, α-tochopherol] | 52.4% | apparent effect of retaining a green color against light was confirmed |  |
| CC1=C(/C=C/C(C)=C/C=C/C(C)=C/C=C/C=C(C)/C=C/C=C(C)/C=C/C2=C(C)CCCC2(C)C)C(C)(C)CCC1 [β-Carotene/ethanol solution, β-carotene] | 56.1% | apparent effect of retaining a green color against light was confirmed |  |
| O=C1O[C@H]([C@@H](O)CO)C(O)=C1O [Ascorbic acid aqueous solution, ascorbic acid] | 0% |  | hardly confirmed |
| tocopherol |  |  | hardly confirmed |
